Measured values published in article PMC11079868, “Synthesis of Novel Hydrazide–Hydrazone Compounds and In Vitro and In Silico Investigation of Their Biological Activities against AChE, BChE, and hCA I and II” (ACS Omega, 2024).
Like-named read-outs stand apart in the source and are kept apart here.

Columns and labels:
Type in all cases: biochemical
hCA I = target: T1, hCA I (Homo sapiens, UniProt P00915); experiment: biochemical; conditions: for IC50: mean from at least three determinations
T1 construct: from tissue; host or cells: fresh human erythrocytes
T1 sequence (P00915 whole entry): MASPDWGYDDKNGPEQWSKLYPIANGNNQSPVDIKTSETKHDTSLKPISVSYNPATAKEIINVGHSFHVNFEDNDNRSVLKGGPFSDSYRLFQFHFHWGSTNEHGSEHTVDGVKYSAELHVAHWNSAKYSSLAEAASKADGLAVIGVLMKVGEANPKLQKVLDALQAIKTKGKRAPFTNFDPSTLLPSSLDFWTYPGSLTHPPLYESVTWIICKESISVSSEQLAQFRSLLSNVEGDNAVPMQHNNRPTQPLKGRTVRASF
Text: (§1) In this study, hCA I and II were obtained from fresh human erythrocytes using affinity chromatography as previously described in the literature.[36],[37] AChE from Electrophorus electricus (electric eel) (C3389: Sigma-Aldrich), BChE from equine serum (C4290: Sigma-Aldrich), and the other chemicals (4-nitrophenyl acetate (N8130: Sigma-Aldrich), 5,5′-dithiobis(2-nitrobenzoic acid) (D218200: Sigma-Aldrich), acetylthiocholine iodide (A5771: Sigma-Aldrich), butyrylthiocholine iodide (B3253: Sigma-Aldrich)) were purchased from local representatives of well-known commercial companies. On the other hand, the absorbance rates of each compound were determined by a microplate spectrophotometer (Multiskan Go, Thermo Scientific).
(§2) In this study, we conducted hCA I and II activity assays using the Verpoorte method, as outlined in previous literature.[38] The inhibitory activities of all of the newly synthesized compounds were thoroughly tested. The inhibitory activity of each molecule was examined in triplicate at each concentration. Different concentrations were employed for all inhibitors tested in this study, respectively. The baseline activity in the control cuvette, without any inhibitory agent, was established as 100%.

hCA II = target: T2, hCA II (Homo sapiens, UniProt P00918); experiment: hCA II activity assay (Verpoorte esterase method); conditions: mean from at least three determinations
T2 construct: from tissue; host or cells: fresh human erythrocytes
Text: as §1
as §2, with “100%. AZA was used as a positive control compound.” for “100%.”

AChE = target: T3, AChE (Electrophorus electricus, UniProt O42275); experiment: AChE activity assay (Ellman method); conditions: for IC50: mean from at least three determinations
T3 construct: purchased Sigma-Aldrich C3389
T3 sequence (O42275 24-633): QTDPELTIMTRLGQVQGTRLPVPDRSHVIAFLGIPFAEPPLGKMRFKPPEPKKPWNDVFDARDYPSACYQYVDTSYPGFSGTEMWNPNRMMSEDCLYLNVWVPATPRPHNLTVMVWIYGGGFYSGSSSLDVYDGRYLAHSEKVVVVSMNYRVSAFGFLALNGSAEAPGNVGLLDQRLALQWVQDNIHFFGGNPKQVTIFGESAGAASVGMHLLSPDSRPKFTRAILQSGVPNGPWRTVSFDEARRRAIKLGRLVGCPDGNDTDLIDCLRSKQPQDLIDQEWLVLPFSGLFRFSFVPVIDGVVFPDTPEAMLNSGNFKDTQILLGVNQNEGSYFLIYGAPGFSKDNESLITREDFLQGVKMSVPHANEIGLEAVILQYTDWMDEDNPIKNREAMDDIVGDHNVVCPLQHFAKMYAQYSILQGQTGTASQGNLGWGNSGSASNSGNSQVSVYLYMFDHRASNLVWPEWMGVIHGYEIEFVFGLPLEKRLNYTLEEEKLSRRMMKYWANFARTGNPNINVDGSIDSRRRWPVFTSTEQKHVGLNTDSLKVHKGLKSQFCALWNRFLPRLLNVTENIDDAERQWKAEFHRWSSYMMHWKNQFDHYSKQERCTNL
Text: as §1
(§3) The evaluation of the inhibitory characteristics of all synthesized compounds against AChE and BChE was conducted using the widely recognized Ellman method,[41] as described in pertinent literature sources.[2],[14],[18]

BChE = target: T4, BChE (Equus caballus, UniProt P81908); experiment: BChE activity assay (Ellman method)
T4 construct: BChE from equine serum (C4290: Sigma-Aldrich); purchased Sigma-Aldrich C4290; host or cells: equine serum
T4 sequence (P81908 whole entry): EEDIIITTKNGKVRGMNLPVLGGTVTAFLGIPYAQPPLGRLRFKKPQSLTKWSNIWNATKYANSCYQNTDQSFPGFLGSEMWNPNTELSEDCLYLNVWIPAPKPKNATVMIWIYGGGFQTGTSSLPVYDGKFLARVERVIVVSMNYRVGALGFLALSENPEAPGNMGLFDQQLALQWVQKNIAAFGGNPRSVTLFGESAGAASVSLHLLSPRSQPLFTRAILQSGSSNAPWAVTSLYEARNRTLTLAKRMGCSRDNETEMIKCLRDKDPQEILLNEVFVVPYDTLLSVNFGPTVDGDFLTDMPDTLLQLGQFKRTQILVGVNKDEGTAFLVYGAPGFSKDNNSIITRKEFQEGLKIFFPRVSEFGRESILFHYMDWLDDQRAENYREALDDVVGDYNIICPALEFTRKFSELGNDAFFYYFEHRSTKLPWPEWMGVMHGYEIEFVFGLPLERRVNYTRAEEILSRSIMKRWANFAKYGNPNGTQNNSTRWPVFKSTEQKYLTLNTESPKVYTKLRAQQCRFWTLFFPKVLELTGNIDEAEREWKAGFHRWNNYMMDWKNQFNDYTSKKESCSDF
Text: as §1, §3

[1] = mean from at least three determinations, read-out: IC50 BChE
[2] = ratio of IC50 values vs neostigmine

`COc1cc(C=O)ccc1OC(=O)c1ccc(N(C)C)cc1` [compound 5, 4-Formyl-2-methoxyphenyl 4-(Dimethylamino)benzoate] was tested, and the IC50 (hCA I) was 0.0391 ± 0.00071 µM, the IC50 (hCA II) was 0.0204 ± 0.00035 µM and the IC50 (AChE) was 0.0614 ± 0.00112 µM. The IC50 (BChE; [1]) was 0.0547 ± 0.00091 µM.
Work on `COc1cccc(C=NNC(=O)c2cccnc2)c1OC(=O)c1ccc(N(C)C)cc1` [compound 9, 2-Methoxy-6-((2-nicotinoylhydrazono)methyl)phenyl 4-(Dimethylamino)benzoate] yielded an IC50 (hCA I) of 0.0357 ± 0.00074 µM, an IC50 (hCA II) of 0.0125 ± 0.00021 µM and an IC50 (AChE) of 0.0432 ± 0.00081 µM. It also gave an IC50 (BChE; [1]) of 0.0396 ± 0.00071 µM.
In the case of `CN(C)c1ccc(C(=O)Oc2ccccc2C=NNC(=O)c2cccnc2)cc1` [compound 7, 2-((2-Nicotinoylhydrazono)methyl)phenyl 4-(Dimethylamino)benzoate], the IC50 (hCA I) is reported as 0.0291 ± 0.00053 µM, the IC50 (hCA II) is reported as 0.00803 ± 0.00014 µM and the IC50 (AChE) is reported as 0.0486 ± 0.00079 µM. The IC50 (BChE; [1]) was 0.0453 ± 0.00082 µM.
With `CN(C)c1ccc(C(=O)Oc2ccc(C=NNC(=O)c3cccnc3)cc2)cc1` [compound 8, 4-((2-Nicotinoylhydrazono)methyl)phenyl 4-(Dimethylamino)benzoate] the IC50 (hCA I) was 0.0214 ± 0.00039 µM, the “inhibition of hCA I relative to AZA” value (hCA I; ratio of IC50 values vs AZA) was 13 fold and the IC50 (hCA II) was 0.00712 ± 0.00012 µM. It also gave an IC50 (AChE) of 0.0463 ± 0.00075 µM and an IC50 (BChE; [1]) of 0.0434 ± 0.00083 µM.
`CN(C)c1ccc(C(=O)Oc2ccc(C=O)cc2)cc1` [compound 2, 4-Formylphenyl 4-(Dimethylamino)benzoate] showed an IC50 (hCA I) of 0.0256 ± 0.00047 µM, an IC50 (hCA II) of 0.0122 ± 0.00021 µM and an IC50 (AChE) of 0.0485 ± 0.00081 µM. It also gave an IC50 (BChE; [1]) of 0.0415 ± 0.00068 µM.
Work on `COc1cccc(C=O)c1OC(=O)c1ccc(N(C)C)cc1` [compound 3, 2-Formyl-6-methoxyphenyl 4-(Dimethylamino)benzoate] yielded an IC50 (hCA I) of 0.0396 ± 0.00072 µM, an IC50 (hCA II) of 0.0161 ± 0.00033 µM and an IC50 (AChE) of 0.0595 ± 0.00096 µM. The IC50 (BChE; [1]) was 0.0513 ± 0.00089 µM.
`CN(C)c1ccc(C(=O)Oc2ccc3ccccc3c2C=NNC(=O)c2cccnc2)cc1` [compound 12, 1-((2-Nicotinoylhydrazono)methyl)naphthalen-2-yl 4-(Dimethylamino)benzoate] showed an IC50 (hCA I) of 0.0427 ± 0.00081 µM, an IC50 (hCA II) of 0.0235 ± 0.00041 µM and an IC50 (AChE) of 0.0214 ± 0.00038 µM. For the same compound, the “inhibition of AChE relative to neostigmine” value (AChE; [2]) was “more than 6 fold”, the “inhibition of AChE relative to rivastigmine” value (AChE; ratio of IC50 values vs rivastigmine) was “approximately 3 fold” and the IC50 (BChE; [1]) was 0.0184 ± 0.00036 µM. The “inhibition of BChE relative to neostigmine” value (BChE; [2]) was “approximately 5 fold” and the “inhibition of BChE relative to neostigmine” value (BChE; ratio vs neostigmine, Conclusions text) was “approximately 4 times”.
Work on `CN(C)C(=O)Oc1cccc([N+](C)(C)C)c1` [neostigmine, reference compound] yielded an IC50 (BChE) of 0.084 ± 0.00107 µM.
In the case of `CN(C)c1ccc(C(=O)Oc2ccccc2C=O)cc1` [compound 1, 2-Formylphenyl 4-(Dimethylamino)benzoate], the IC50 (hCA I) is reported as 0.0275 ± 0.00051 µM, the IC50 (hCA II) is reported as 0.0137 ± 0.00027 µM and the IC50 (AChE) is reported as 0.0511 ± 0.00088 µM. For the same compound, the IC50 (BChE; [1]) was 0.0435 ± 0.00075 µM.
`COc1ccc(C=O)cc1OC(=O)c1ccc(N(C)C)cc1` [compound 4, 5-Formyl-2-methoxyphenyl 4-(Dimethylamino)benzoate] gave an IC50 (hCA I) of 0.0381 ± 0.00065 µM, an IC50 (hCA II) of 0.0154 ± 0.00032 µM and an IC50 (AChE) of 0.0602 ± 0.00102 µM. It also gave an IC50 (BChE; [1]) of 0.0531 ± 0.00091 µM.
`COc1ccc(C=NNC(=O)c2cccnc2)cc1OC(=O)c1ccc(N(C)C)cc1` [compound 10, 2-Methoxy-5-((2-nicotinoylhydrazono)methyl)phenyl 4-(Dimethylamino)benzoate] showed an IC50 (hCA I) of 0.0325 ± 0.00073 µM, an IC50 (hCA II) of 0.0118 ± 0.00022 µM and an IC50 (AChE) of 0.0296 ± 0.00053 µM. It also gave an IC50 (BChE; [1]) of 0.0297 ± 0.00054 µM.
Work on `CN(C)c1ccc(C(=O)Oc2ccc3ccccc3c2C=O)cc1` [compound 6, 1-Formylnaphthalen-2-yl 4-(Dimethylamino)benzoate] yielded an IC50 (hCA I) of 0.0451 ± 0.00082 µM, an IC50 (hCA II) of 0.0247 ± 0.00043 µM and an IC50 (AChE) of 0.0282 ± 0.00052 µM. The IC50 (BChE; [1]) was 0.0252 ± 0.00042 µM.
`COc1cc(C=NNC(=O)c2cccnc2)ccc1OC(=O)c1ccc(N(C)C)cc1` [compound 11, 2-Methoxy-4-((2-nicotinoylhydrazono)methyl)phenyl 4-(Dimethylamino)benzoate] showed an IC50 (hCA I) of 0.0322 ± 0.00072 µM, an IC50 (hCA II) of 0.0116 ± 0.00022 µM and an IC50 (AChE) of 0.0286 ± 0.00052 µM. It also gave an IC50 (BChE; [1]) of 0.0286 ± 0.0005 µM.
